Like-named read-outs stand apart in the source and are kept apart here.
Key:
[1] = Plasma free fraction (fu) and unbound Cmax (Cmax,u); assay type: in vitro ADME, human; conditions: unbound plasma Cmax
[2] = system: PHH 3D spheroids; set-up: method as in Bell et al. 2018; conditions: 14-day exposure, three donors, ref Bell et al. 2018; cited from earlier work
[3] = system: OATP1B1; conditions: known substrates; cited from earlier work
[4] = cited from earlier work
[5] = system: primary human hepatocytes, NIH3T3 fibroblasts, BSEP, CYP3A4; conditions: cited from earlier work
[6] = system: THLE or HepG2 cells, isolated mitochondria, BSEP; conditions: cited from earlier work
[7] = system: PHH; conditions: cited from earlier work
[8] = system: hLiMTs; conditions: cited from earlier work
[9] = system: PHH spheroids; conditions: cited from earlier work
[10] = system: HepG2 C3A spheroid, BSEP, Glu/Gal in HepG2 cells, bioactivation; conditions: cited from earlier work
[11] = read-out: Human plasma Cmax; total plasma Cmax.tot, median of 9 literature references; cited from earlier work
[12] = plasma free fraction; cited from earlier work
[13] = cited from earlier work; remark: listed apart in the source
[14] = system: THLE-Null and THLE-3A4 cells; conditions: In vitro Assay; ref Gustafsson 2014; cited from earlier work
[15] = system: HepG2 cells, primary human hepatocytes; conditions: In vitro Assay; ref Garside 2014; cited from earlier work
[16] = ref Chen 2011; cited from earlier work
[17] = system: rBsep; conditions: In vitro Assay; ref Dawson 2012; cited from earlier work
[18] = system: hLiMTs; experiment: Combined HCI (HCS) and cellular ATP 3D assay in hLiMTs; conditions: for AC50 / minimal effective concentration: Homo sapiens
[19] = system: HepaRG spheroids; experiment: Combined HCI (HCS) and cellular ATP 3D assay in HepaRG spheroids; conditions: for AC50 / minimal effective concentration: Homo sapiens
[20] = In vitro Assay, ref Schadt 2015
[21] = Modeled in vitro assays (cytotoxicity, mitochondrial dysfunction, BSEP), ref Aleo et al. 2019
[22] = In vitro Assay, ref Proctor 2017
[23] = Microtissue model structural based (HCI), combined HCS and ATP, MEC < 25 × Cmax.tot cut-off

Human plasma Cmax,u [1]: 0.149 µM | hLiMTs <25x Avg Cmax ATP ([18]; hLiMTs, ATP endpoint, cut-off <25x Avg Cmax): +ve | hLiMTs <100x Avg Cmaxu ATP ([18]; hLiMTs, ATP endpoint, cut-off <100x Avg Cmaxu): -ve | hLiMTs <25x Avg Cmax HCS ([18]; hLiMTs, HCS endpoints, cut-off <25x Avg Cmax): +ve | hLiMTs <100x Avg Cmaxu HCS ([18]; hLiMTs, HCS endpoints, cut-off <100x Avg Cmaxu): -ve | hLiMTs <25x Avg Cmax All ([18]; hLiMTs, all endpoints (ATP and HCS), cut-off <25x Avg Cmax): +ve | hLiMTs Cmax max All ([18]; hLiMTs, all endpoints, Cmax max used): +ve | hLiMTs Cmax min All ([18]; hLiMTs, all endpoints, Cmax min used): +ve | hLiMTs <10 uM All ([18]; hLiMTs, all endpoints, cut-off <10 uM): -ve | hLiMTs <100x Avg Cmaxu All ([18]; hLiMTs, all endpoints, cut-off <100x Avg Cmaxu): -ve | HepaRG <25x Avg Cmax ATP ([19]; HepaRG, ATP endpoint, cut-off <25x Avg Cmax): +ve | HepaRG <100x Avg Cmaxu ATP ([19]; HepaRG, ATP endpoint, cut-off <100x Avg Cmaxu): -ve | HepaRG <25x Avg Cmax HCS ([19]; HepaRG, HCS endpoints, cut-off <25x Avg Cmax): +ve | HepaRG <100x Avg Cmaxu HCS ([19]; HepaRG, HCS endpoints, cut-off <100x Avg Cmaxu): -ve | HepaRG <25x Avg Cmax All ([19]; HepaRG, all endpoints (ATP and HCS), cut-off <25x Avg Cmax): +ve | HepaRG Cmax max All ([19]; HepaRG, all endpoints, Cmax max used): +ve | HepaRG Cmax min All ([19]; HepaRG, all endpoints, Cmax min used): +ve | HepaRG <10 uM All ([19]; HepaRG, all endpoints, cut-off <10 uM): -ve | HepaRG <100x Avg Cmaxu All ([19]; HepaRG, all endpoints, cut-off <100x Avg Cmaxu): -ve
SMILES: COc1ccccc1Oc1c(NS(=O)(=O)c2ccc(C(C)(C)C)cc2)nc(-c2ncccn2)nc1OCCO [bosentan]
detection at 10 × Cmax.tot cut-off [2]: only detected by one of three donors | substrate for hepatic uptake transporter OATP1B1 [3]: known substrates | DILI severity category (Chen et al. [2016]) ([4]; LTKB DILIrank category, ref Chen et al. 2016): Most | DILI severity category (Chen 2016) ([4]; human DILI classification, LTKB DILIrank, ref Chen et al. 2016): Most | DILI severity category ([4]; human DILI severity, ref Chen et al.): Most | DILI +VE (5-8), DILI -VE (-4) ([4]; ref Chen 2016): +VE | DILI severity category ([4]; ref Chen 2016): vMost-DILI-Concern | DILI in vitro assay prediction, Schadt (2015) ([5]; BSEP & Metabolism based, ref Schadt et al. 2015): +VE | Cellular toxicity (3T3 cells) [5, 20]: -VE | Combined Assay [5, 20]: +VE | GSH adduct HML [5, 20]: +VE | Hepatocyte cellular toxicity [5, 20]: +VE | MitoTox 3T3 [5, 20]: -VE | TDI CYP3A4 [5, 20]: -VE | hBSEP inhibition [5, 20]: +VE | Partition Hybrid HRM Score ([6]; In vitro Assay, ref Aleo 2019): +VE | Ro2 Hybrid HRM Score ([6]; In vitro Assay, ref Aleo 2019): +VE | Partition Hybrid HRM Score ≥4, Aleo (2019) [6, 21]: +VE (Partition Hybrid HRM Score ≥4) | Partition Hybrid HRM Score ≥8, Aleo (2019) [6, 21]: +VE (Partition Hybrid HRM Score ≥8) | Rule of Two hybrid HRM Score ≥3, Aleo (2019) [6, 21]: +VE (Rule of Two hybrid HRM Score ≥3) | Rule of Two hybrid HRM Score ≥8, Aleo (2019) [6, 21]: +VE (Rule of Two hybrid HRM Score ≥8) | PHH/100xCmax, Proctor (2017) ([7]; 2D PHH, ATP, IC50 < 100 × Cmax.tot, ref Proctor et al. 2017): -VE | PHH/100uM, Proctor (2017) ([7]; 2D PHH, ATP, IC50 threshold 100 µM, ref Proctor et al. 2017): -VE | PHH ATP <100uM [7, 22]: -VE | hLiMTs ATP <100uM [8, 22]: +VE (IC50 threshold of 100 µM) | hLiMTs/100xCmax, Proctor (2017) ([8]; hLiMTs, ATP, IC50 < 100 × Cmax.tot, ref Proctor et al. 2017): +VE (IC50 < 100 × Cmax.tot) | hLiMTs/100uM, Proctor (2017) ([8]; hLiMTs, ATP, IC50 threshold 100 µM, ref Proctor et al. 2017): +VE (IC50 threshold of 100 µM) | hLiMTs ATP <20 x Cmax ([9]; In vitro Assay, ref Vorrink 2018): +VE (IC20 < 20 × Cmax.tot cut-off) | DILI in vitro assay prediction, Vorrink (2018) ([9]; PHH spheroids, ATP, 14 days, IC20 < 20 × Cmax.tot, ref Vorrink et al. 2018): +VE (IC20 < 20 × Cmax.tot cut-off) | Bayesian Machine Learning DILI prediction, Williams (2019) ([10]; Bayesian modeling, ref Williams et al. 2019): +VE | Bayesian Machine Learning ([10]; In vitro Assay, ref Williams 2019): +VE | Cmax [11]: 7.43 µM | fu [12]: 0.020 | Assigned DILI category ([13]; Chen et al. 2016 or literature alignment, ref Chen et al. 2016): 3 | In vivo DILI ([13]; ref Aleo 2019): +VE | In vivo DILI ([13]; ref Dawson 2012): +VE | In vivo DILI ([13]; ref Garside 2014): +VE | In vivo DILI ([13]; ref Gustafsson 2014): +VE | In vivo DILI ([13]; ref Proctor 2017): +VE | In vivo DILI ([13]; ref Schadt 2015): +VE | In vivo DILI ([13]; ref Vorrink 2018): +VE | In vivo DILI ([13]; ref Williams 2019): +VE | THLE-Null [14]: -VE | THLE-Null/3A4 [14]: -VE | Cluster 1-6 +VE Assay [15]: -VE | DILI Score (FDA) (1-8) [16]: 7 | Inhibition of rBsep cutoff<1& cmax u>.2 [17]: +VE | Inhibition of rBsep cutoff<3 [17]: +VE | AC50 ([18]; read-out: ATP endpoint AC50): 57.9 µM | minimal effective concentration ([18]; read-out: ATP endpoint MEC): 29.4 µM | AC50 ([18]; read-out: HCS endpoint AC50): 179 µM | minimal effective concentration ([18]; read-out: HCS endpoint MEC): 63 µM | DILI prediction hLiMTs (HCS-MEC) [18, 23]: +VE (MEC < 25 × Cmax.tot cut-off) | AC50 ([19]; HepaRG, read-out: ATP endpoint AC50): 74.7 µM | minimal effective concentration ([19]; HepaRG, read-out: ATP endpoint MEC): 35.2 µM | AC50 ([19]; HepaRG, read-out: HCS endpoint AC50): 125 µM | minimal effective concentration ([19]; HepaRG, read-out: HCS endpoint MEC): 40 µM | DILI prediction HepaRG spheroids (HCS-MEC) [19, 23]: +VE (MEC < 25 × Cmax.tot cut-off)
